Results on 1 compound are retold here after ChEMBL document CHEMBL5365556 (ACS Med Chem Lett, 2023).

Each structure is given as a SMILES string.

The assay relates to THP-1. The assay is described as follows: Cytotoxicity against human THP-1 cells assessed as reduction in cell viability measured after 24 hrs by Celltiter-Glo assay. The assay is classed as functional, cell-based. The settings on record: THP-1, 24 h. Background: Cellular ATP, detected with luciferase, serves as a proxy for viable cell number.

By IC50 is commonly meant the concentration at which inhibition is half-maximal. With `CCN(CC)C(=S)SSC(=S)N(CC)CC`, the IC50 worked out at 7 µM.
